Measured values as given in US9499550B2 (BRISTOL-MYERS SQUIBB COMPANY, priority 2012, dated 2016).
Like-named read-outs stand apart in the source and are kept apart here.

Key:
[1] = tested on: HCV genotype 1b (Con1) replicon in HUH-7 cells; assay: HCV replicon luciferase reporter assay, genotype 1b; assay type: cell-based; conditions: Hepatitis C virus, Huh-7, 72 h, 3 days incubation, read-out: LE_1b (EC50, range)
In short: (§1)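 Replicon inhibition for both genotypes was measured as Renilla luciferase signal (EnduRen, 7.5 μM final, 2 h) after 3-day, 37° C exposure of replicon-bearing HUH-7 cells in 4% FCS DMEM, 0.5% DMSO. The 1b construct carries S1179I; the 1a H77 construct carries P1496L and S2204I. Twenty-point, 3-fold dilutions were fitted four-parametrically for EC50, and CC50 was taken from multiplexed Cell Titer-Blue.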

[2] = tested on: HCV genotype 1a (H77 strain) replicon in HUH-7 cells; assay: HCV replicon luciferase reporter assay, genotype 1a; assay type: cell-based; conditions: Hepatitis C virus, Huh-7, 72 h, 3 days incubation, read-out: LE_1a (EC50, range)
In short: as §1

[3] = HCV genotype 1b replicon luciferase
[4] = HCV genotype 1a replicon luciferase
[5] = HCV genotype 1b replicon luciferase assay, range class
[6] = HCV genotype 1a replicon luciferase assay, range class

SMILES	EC50 [1, 3]	EC50 [2, 4]	EC50 [1, 5]	EC50 [2, 6]	further results
COc1cc2ccnc(O[C@@H]3C[C@H]4C(=O)N[C@]5(C(=O)NS(=O)(=O)C6(C)CC6)C[C@H]5/C=C\CC[C@@H](C)C[C@@H](C)[C@H](NC(=O)OC(C)(C)C(F)(F)F)C(=O)N4C3)c2cc1F [Compound 4039, 1,1-trifluoro-2-methylpropan-2-yl(2R,6S,7R,9R,13aS,14aR,16aS,Z)-2-(7-fluoro-6-methoxyisoquinolin-1-yloxy)-7,9-dimethyl-14a-(1-methylcyclopropylsulfonylcarbamoyl)-5,16-dioxo-1,2,3,5,6,7,8,9,10,11,13a,14,14a,15,16,16a-hexadecahydrocyclopropa[e]pyrrolo[1,2-a][1,4]diazacyclopentadecin-6-ylcarbamate]	< 5.46 nM	< 5.46 nM	–	–	–
CC[C@@H]1C[C@H](C)CC/C=C\[C@@H]2C[C@@]2(C(=O)NS(=O)(=O)C2CC2)NC(=O)[C@@H]2C[C@@H](Oc3nc(-c4ccc(OC(C)C)cn4)cc4cc(OC)ccc34)CN2C(=O)[C@H]1NC(=O)OC(C)(C)C(C)(F)F [Compound 5483, 3,3-difluoro-2-methylbutan-2-yl((2R,6S,7R,9R,13aS,14aR,16aS,Z)-14a-((cyclopropylsulfonyl)carbamoyl)-7-ethyl-2-((3-(5-isopropoxypyridin-2-yl)-6-methoxyisoquinolin-1-yl)oxy)-9-methyl-5,16-dioxo-1,2,3,5,6,7,8,9,10,11,13a,14,14a,15,16,16a-hexadecahydrocyclopropa[e]pyrrolo[1,2-a][1,4]diazacyclopentadecin-6-yl)carbamate]	1.01 to 5 nM	1.01 to 5 nM	–	–	–
COCCOc1cnc(O[C@@H]2C[C@H]3C(=O)N[C@]4(C(=O)NS(=O)(=O)C5(C)CC5)C[C@H]4/C=C\CC[C@H](C)C[C@@H](C)[C@H](NC(=O)OC(C)(C)C(C)(F)F)C(=O)N3C2)c2ccc(OC)cc12 [Compound 1148, 3,3-difluoro-2-methylbutan-2-yl((2R,6S,7R,9S,13aS,14aR,16aS,Z)-2-((6-methoxy-4-(2-methoxyethoxyl)isoquinolin-1-yl)oxy)-7,9-dimethyl-14a-(((1-methylcyclopropyl)sulfonyl)carbamoyl)-5,16-dioxo-1,2,3,5,6,7,8,9,10,11,13a,14,14a,15,16,16a-hexadecahydrocyclopropa[e]pyrrolo[1,2-a][1,4]diazacyclopentadecin-6-yl)carbamate]	–	–	< 5.46 nM	< 5.46 nM	–
COc1ccc2c(O[C@@H]3C[C@H]4C(=O)N[C@]5(C(=O)NS(=O)(=O)C6(C)CC6)C[C@H]5/C=C\CC[C@@H](C)C[C@@H](C)[C@H](NC(=O)OC(C)(C)C)C(=O)N4C3)nc(-c3ccc(OC(C)C)cc3)c(OC)c2c1 [Compound 5344, tert-butyl ((2R,6S,7R,9R,13aS,14aR,16aS,Z)-2-((3-(4-isopropoxyphenyl)-4,6-dimethoxyisoquinolin-1-yl)oxy)-7,9-dimethyl-14a-(((1-methylcyclopropyl)sulfonyl)carbamoyl)-5,16-dioxo-1,2,3,5,6,7,8,9,10,11,13a,14,14a,15,16,16a-hexadecahydrocyclopropa[e]pyrrolo[1,2-a][1,4]diazacyclopentadecin-6-yl)carbamate]	< 5.46 nM	< 5.46 nM	–	–	–
COc1ccc2c(O[C@@H]3C[C@H]4C(=O)N[C@]5(C(=O)NS(=O)(=O)C6(CF)CC6)C[C@H]5/C=C\CC[C@@H](C)C[C@@H](C)[C@H](NC(=O)OC(C)(C)C)C(=O)N4C3)nccc2c1 [Compound 4147, tert-butyl (2R,6S,7R,9R,13aS,14aR,16aS,Z)-14a-(1-(fluoromethyl)cyclopropylsulfonylcarbamoyl)-2-(6-methoxyisoquinolin-1-yloxy)-7,9-dimethyl-5,16-dioxo-1,2,3,5,6,7,8,9,10,11,13a,14,14a,15,16,16a-hexadecahydrocyclopropa[e]pyrrolo[1,2-a][1,4]diazacyclopentadecin-6-ylcarbamate]	< 5.46 nM	< 5.46 nM	–	–	–
COc1cnc(O[C@@H]2C[C@H]3C(=O)N[C@]4(C(=O)NS(=O)(=O)C5(CF)CC5)C[C@H]4/C=C\CC[C@@H](C)C[C@@H](C)[C@H](NC(=O)OC4(C5CC5)COC4)C(=O)N3C2)c2ccccc12 [Compound 1060, 3-cyclopropyloxetan-3-yl((2R,6S,7R,9R,13aS,14aR,16aS,Z)-14a-(((1-(fluoromethyl)cyclopropyl)sulfonyl)carbamoyl)-2-((4-methoxyisoquinolin-1-yl)oxy)-7,9-dimethyl-5,16-dioxo-1,2,3,5,6,7,8,9,10,11,13a,14,14a,15,16,16a-hexadecahydrocyclopropa[e]pyrrolo[1,2-a][1,4]diazacyclopentadecin-6-yl)carbamate]	–	–	< 5.46 nM	< 5.46 nM	–
COc1cc(F)cc2c(O[C@@H]3C[C@H]4C(=O)N[C@]5(C(=O)NS(=O)(=O)C6CC6)C[C@H]5/C=C\CC[C@@H](C)C[C@@H](C)[C@H](NC(=O)O[C@@H]5C[C@@H]6C[C@@H]6C5)C(=O)N4C3)nccc12 [Compound 3168, (1R,3r,5S)-bicyclo[3.1.0]hexan-3-yl((2R,6S,7R,9R,13aS,14aR,16aS,Z)-14a-((cyclopropylsulfonyl)carbamoyl)-2-((7-fluoro-5-methoxyisoquinolin-1-yl)oxy)-7,9-dimethyl-5,16-dioxo-1,2,3,5,6,7,8,9,10,11,13a,14,14a,15,16,16a-hexadecahydrocyclopropa[e]pyrrolo[1,2-a][1,4]diazacyclopentadecin-6-yl)carbamate]	–	–	< 5.46 nM	< 5.46 nM	–
COc1ccc2c(O[C@@H]3C[C@H]4C(=O)N[C@]5(C(=O)NS(=O)(=O)C6(CF)CC6)C[C@H]5/C=C\CC[C@H](C)C[C@@H](C)[C@H](NC(=O)OC(C)(C)C(F)(F)F)C(=O)N4C3)ncc(C(F)(F)F)c2c1 [Compound 1174, 1,1,1-trifluoro-2-methylpropan-2-yl((2R,6S,7R,9S,13aS,14aR,16aS,Z)-14a-(((1-(fluoromethyl)cyclopropyl)sulfonyl)carbamoyl)-2-((6-methoxy-4-(trifluoromethyl)isoquinolin-1-yl)oxy)-7,9-dimethyl-5,16-dioxo-1,2,3,5,6,7,8,9,10,11,13a,14,14a,15,16,16a-hexadecahydrocyclopropa[e]pyrrolo[1,2-a][1,4]diazacyclopentadecin-6-yl)carbamate]	–	–	4.82 to 103 nM	4.82 to 103 nM	–
COc1ccc2c(O[C@@H]3C[C@H]4C(=O)N[C@]5(C(=O)NS(=O)(=O)C6(C)CC6)C[C@H]5/C=C\CC[C@H](C)C[C@@H](C)[C@H](NC(=O)OC(C)(C)C(F)(F)F)C(=O)N4C3)nc(-c3ccc(F)cc3)cc2c1 [Compound 3079, 1,1,1-trifluoro-2-methylpropan-2-yl((2R,6S,7R,9S,13aS,14aR,16aS,Z)-2-((3-(4-fluorophenyl)-6-methoxyisoquinolin-1-yl)oxy)-7,9-dimethyl-14a-(((1-methylcyclopropyl)sulfonyl)carbamoyl)-5,16-dioxo-1,2,3,5,6,7,8,9,10,11,13a,14,14a,15,16,16a-hexadecahydrocyclopropa[e]pyrrolo[1,2-a][1,4]diazacyclopentadecin-6-yl)carbamate]	–	–	< 5.46 nM	4.82 to 103 nM	–
COc1ccc2c(O[C@@H]3C[C@H]4C(=O)N[C@]5(C(=O)NS(=O)(=O)C6(F)CC6)C[C@H]5/C=C\CC[C@@H](C)C[C@@H](C)[C@H](NC(=O)OC5CCCCC5)C(=O)N4C3)nccc2c1 [Compound 4037]	< 5.46 nM	< 5.46 nM	–	–	–
COc1ccc2c(O[C@@H]3C[C@H]4C(=O)N[C@]5(C(=O)NS(=O)(=O)C6(C(F)F)CC6)C[C@H]5/C=C\CC[C@@H](C)C[C@@H](C)[C@H](NC(=O)OC(C)(C)C(C)(F)F)C(=O)N4C3)nc(OC)cc2c1 [Compound 1182]	–	–	–	–	EC50 ([1]; GETYPE1B, HCV genotype 1b replicon luciferase assay, range class): < 5.46 nM; EC50 ([2]; GETYPE1A, HCV genotype 1a replicon luciferase assay, range class): < 5.46 nM
CC[C@@H]1C[C@H](C)CC/C=C\[C@@H]2C[C@@]2(C(=O)NS(=O)(=O)C2(C)CC2)NC(=O)[C@@H]2C[C@@H](Oc3ncc(OC)c4ccc(F)cc34)CN2C(=O)[C@H]1NC(=O)N1CC(C)OC(C)C1 (stereo partly drawn) [Compound 4328, N-((2R,6S,7R,9R,13aS,14aR,16aS,Z)-7-ethyl-2-((7-fluoro-4-methoxyisoquinolin-1-yl)oxy)-9-methyl-14a-(((1-methylcyclopropyl)sulfonyl)carbamoyl)-5,16-dioxo-1,2,3,5,6,7,8,9,10,11,13a,14,14a,15,16,16a-hexadecahydrocyclopropa[e]pyrrolo[1,2-a][1,4]diazacyclopentadecin-6-yl)-2,6-dimethylmorpholine-4-carboxamide]	1.01 to 5 nM	1.01 to 5 nM	–	–	–
CCOc1cc2ccnc(O[C@@H]3C[C@H]4C(=O)N[C@]5(C(=O)NS(=O)(=O)C6(CF)CC6)C[C@H]5/C=C\CC[C@H](C)C[C@@H](C)[C@H](NC(=O)OC(C)(C)C)C(=O)N4C3)c2cc1F [Compound 5410, tert-butyl ((2R,6S,7R,9S,13aS,14aR,16aS,Z)-2-((6-ethoxy-7-fluoroisoquinolin-1-yl)oxy)-14a-(((1-(fluoromethyl)cyclopropyl)sulfonyl)carbamoyl)-7,9-dimethyl-5,16-dioxo-1,2,3,5,6,7,8,9,10,11,13a,14,14a,15,16,16a-hexadecahydrocyclopropa[e]pyrrolo[1,2-a][1,4]diazacyclopentadecin-6-yl)carbamate]	1.01 to 5 nM	5.01 to 35 nM	–	–	–
